Source: PubChem BioAssay AID2060602 (Molecular Pharmacology Branch, DTP, NCI, 2025)

Tested on: 648629-189-R-J1-PDC complex spheroids viability
Test: Anticancer human tumor 648629-189-R-J1-PDC patient-derived bladder carcinoma cell line growth inhibition [CLK]
Conditions: for IC50: curve of first compound; for viability, T/C: stronger effect = lower value; active means viability on the fitted dose curve at most 10% of control; inactive means the rest
Outline: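 Patient-derived tumor cells grown as complex spheroids with HUVEC endothelial cells and mesenchymal stem cells, treated with drug combinations. Concentrations descend in half-log steps from near clinical Cmax, or from 10 microM if Cmax unknown.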

[1] = second compound 0.0316 µM, first compound 0.0316 µM
[2] = second compound 0.0316 µM, first compound 0.1 µM
[3] = second compound 0.0316 µM, first compound 0.316 µM
[4] = second compound 0.0316 µM, first compound 1 µM
[5] = second compound 0.0316 µM, first compound 3.16 µM
[6] = second compound 0.0316 µM, first compound 10 µM
[7] = second compound 0.1 µM, first compound 0.0316 µM
[8] = second compound 0.1 µM, first compound 0.1 µM
[9] = second compound 0.1 µM, first compound 0.316 µM
[10] = second compound 0.1 µM, first compound 1 µM
[11] = second compound 0.1 µM, first compound 3.16 µM
[12] = second compound 0.1 µM, first compound 10 µM
[13] = second compound 0.316 µM, first compound 0.0316 µM
[14] = second compound 0.316 µM, first compound 0.1 µM
[15] = second compound 0.316 µM, first compound 0.316 µM
[16] = second compound 0.316 µM, first compound 1 µM
[17] = second compound 0.316 µM, first compound 3.16 µM
[18] = second compound 0.316 µM, first compound 10 µM
[19] = second compound 1 µM, first compound 0.0316 µM
[20] = second compound 1 µM, first compound 0.1 µM
[21] = second compound 1 µM, first compound 0.316 µM
[22] = second compound 1 µM, first compound 1 µM
[23] = second compound 1 µM, first compound 3.16 µM
[24] = second compound 1 µM, first compound 10 µM
[25] = second compound 3.16 µM, first compound 0.0316 µM
[26] = second compound 3.16 µM, first compound 0.1 µM
[27] = second compound 3.16 µM, first compound 0.316 µM
[28] = second compound 3.16 µM, first compound 1 µM
[29] = second compound 3.16 µM, first compound 3.16 µM
[30] = second compound 3.16 µM, first compound 10 µM
[31] = second compound 10 µM, first compound 0.0316 µM
[32] = second compound 10 µM, first compound 0.1 µM
[33] = second compound 10 µM, first compound 0.316 µM
[34] = second compound 10 µM, first compound 1 µM
[35] = second compound 10 µM, first compound 3.16 µM
[36] = second compound 10 µM, first compound 10 µM
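Wherever viability, T/C is given: drug exposure lasted seven days before viability readout; 100% = DMSO vehicle control wells.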

C=C(F)C(=O)N1CCN(c2nc(OCC3CCCN3C)nc3c2CCN(c2cccc4cccc(Cl)c24)C3)CC1CC#N (centres undefined) + CNC(=O)c1ccc(Nc2nc(OC3CCCC3)c3c(-c4ccc5nc(C)oc5c4)c[nH]c3n2)c(OC)c1
active: viability, T/C [6] 0.23% | viability, T/C [12] 0.52% | viability, T/C [30] 0.19% | viability, T/C [36] 0.26%
3.81 µM: IC50 (second compound 0.1 µM)
< 0.0316 µM: IC50 (second compound 0.316 µM) | IC50 (second compound 1 µM) | IC50 (second compound 3.16 µM) | IC50 (second compound 10 µM)
5.95 µM: IC50 (second compound 0.0316 µM)
inactive: viability, T/C [1] 110% | viability, T/C [2] 107% | viability, T/C [3] 120% | viability, T/C [4] 106% | viability, T/C [5] 111% | viability, T/C [7] 70.8% | viability, T/C [8] 71.7% | viability, T/C [9] 66.6% | viability, T/C [10] 65% | viability, T/C [11] 60.1% | viability, T/C [13] 26% | viability, T/C [14] 27.9% | viability, T/C [15] 29% | viability, T/C [16] 22.4% | viability, T/C [17] 24.4% | viability, T/C [18] 0.16% | viability, T/C [19] 18.6% | viability, T/C [20] 17.9% | viability, T/C [21] 23% | viability, T/C [22] 20.2% | viability, T/C [23] 20.8% | viability, T/C [24] 0.14% | viability, T/C [25] 18.8% | viability, T/C [26] 19.3% | viability, T/C [27] 19.9% | viability, T/C [28] 19.4% | viability, T/C [29] 19.7% | viability, T/C [31] 21.2% | viability, T/C [32] 18.6% | viability, T/C [33] 18.2% | viability, T/C [34] 19.8% | viability, T/C [35] 19.1%

O=c1[nH]cc(F)c(=O)[nH]1 + CNC(=O)c1ccc(Nc2nc(OC3CCCC3)c3c(-c4ccc5nc(C)oc5c4)c[nH]c3n2)c(OC)c1
0.881 µM: IC50 (second compound 0.0316 µM)
inactive: viability, T/C [1] 107% | viability, T/C [2] 95.1% | viability, T/C [3] 77.4% | viability, T/C [4] 45.8% | viability, T/C [5] 33.2% | viability, T/C [6] 32.5% | viability, T/C [7] 79.9% | viability, T/C [8] 86.9% | viability, T/C [9] 64.8% | viability, T/C [10] 32.2% | viability, T/C [11] 23.9% | viability, T/C [12] 22.9% | viability, T/C [13] 21% | viability, T/C [14] 23.6% | viability, T/C [15] 22.2% | viability, T/C [16] 11.9% | viability, T/C [17] 12.8% | viability, T/C [19] 15.8% | viability, T/C [20] 18.7% | viability, T/C [21] 15.7% | viability, T/C [22] 11.2% | viability, T/C [23] 9.79% | viability, T/C [25] 21.1% | viability, T/C [26] 20.4% | viability, T/C [27] 18.6% | viability, T/C [28] 10.2% | viability, T/C [29] 10.9% | viability, T/C [31] 17.8% | viability, T/C [32] 14.8% | viability, T/C [33] 17.4% | viability, T/C [34] 11.4% | viability, T/C [35] 11.5% | viability, T/C [36] 9.63%
0.535 µM: IC50 (second compound 0.1 µM)
active: viability, T/C [18] 10.3% | viability, T/C [24] 9.97% | viability, T/C [30] 10.6%
< 0.0316 µM: IC50 (second compound 0.316 µM) | IC50 (second compound 1 µM) | IC50 (second compound 3.16 µM) | IC50 (second compound 10 µM)
